From US20230218630A1, “COMBINATION OF ALCAFTADINE AND A CORTICOSTEROID” (priority 2020, published 2023)

What was measured:
[1] = target: H2 receptors (Homo sapiens, UniProt P25021); settings: compared to azelastine and olapatadine; cited from earlier work
[2] = Nasal irritation and histopathology of nasal epithelium in rabbits; assay type: in vivo, male New Zealand white rabbits; settings: intranasal, doses of 0.312 mg, 0.625 mg and 1.25 mg, all three groups
Experimental: (§1) The study was carried out on total 24 male New Zealand white rabbits, which were segregated into four groups (G1 to G4, 6 rabbits/group). Mild anaesthesia was induced in all rabbits by inhalation of 2% isoflurane. Three groups (G1-G3) of anaesthetized rabbits were intranasally administered 250 μL of alcaftadine once-daily using the formulations of Examples 10A, 10B, and 10C. A comparator, 250 μL of olopatadine at a concentration of 0.6% w/v, was intranasally administered once-daily to a fourth group G4 of anaesthetized rabbits.
The animals were euthanized by intravenous administration of sodium thiopental injection overdose and nasal epithelium was collected. […] The remaining half of the tissues were stored in 10% neutral buffered formalin for detailed gross histopathological examination such as necrosis, inflammation or any changes during necropsy.

[3] = Pharmacokinetics after intranasal administration in rabbits; settings: for Tmax: male, New Zealand white, rabbit, plasma, inhaled or intranasal
Experimental: The pharmacokinetic profiles of the alcaftadine test formulations 4A, 4B, and 4C as well as an olapatdine nasal formulation were each determined on 6 male New Zealand white rabbits.
as §1
Sampling details for the test and reference formulations: Approximately 0.5 mL of blood sample from each rabbit was withdrawn via marginal ear vein into pre-labelled Eppendorf tubes containing 10% EDTA as an anticoagulant. Blood samples were withdrawn at 0 min, 5 min, 10 min, 15 min, 30 min, 60 min, 120 min, 240 min, 480 min and 1440 min after administration of test and reference formulations.
Procedure for sample preparation: Collected blood samples were mixed gently and kept on crushed ice. Plasma samples were separated after centrifugation at 3500 rpm for 10 min at 4° C. Plasma separation was carried out within 30 min of sample collection and stored at −70±10° C. The animals were euthanized by intravenous administration of sodium thiopental injection overdose and nasal epithelium was collected. Half of the tissues of nasal epithelium were homogenized using phosphate buffered solution (20% homogenation) for quantification of alcaftadine and olopatidine. The remaining half of the tissues were stored in 10% neutral buffered formalin for detailed gross histopathological examination such as necrosis, inflammation or any changes during necropsy.
Rabbit plasma and nasal epithelial tissue concentrations of alcaftadine or olopatidine were determined using a fit-for-purpose LC-MS/MS method with LLOQ of 0.500 ng/mL or 0.250 ng/mL, respectively. The pharmacokinetic parameters were evaluated using Phoenix WinNonlin® Ent-Version 8.0 by non-compartmental analysis.

[4] = target: H1 receptors (Homo sapiens, UniProt P35367); settings: compared to azelastine and olapatadine; cited from earlier work
[5] = single administration, doses of 0.625 to 1.25 mg

Sequence of H1 receptors (P35367 whole entry): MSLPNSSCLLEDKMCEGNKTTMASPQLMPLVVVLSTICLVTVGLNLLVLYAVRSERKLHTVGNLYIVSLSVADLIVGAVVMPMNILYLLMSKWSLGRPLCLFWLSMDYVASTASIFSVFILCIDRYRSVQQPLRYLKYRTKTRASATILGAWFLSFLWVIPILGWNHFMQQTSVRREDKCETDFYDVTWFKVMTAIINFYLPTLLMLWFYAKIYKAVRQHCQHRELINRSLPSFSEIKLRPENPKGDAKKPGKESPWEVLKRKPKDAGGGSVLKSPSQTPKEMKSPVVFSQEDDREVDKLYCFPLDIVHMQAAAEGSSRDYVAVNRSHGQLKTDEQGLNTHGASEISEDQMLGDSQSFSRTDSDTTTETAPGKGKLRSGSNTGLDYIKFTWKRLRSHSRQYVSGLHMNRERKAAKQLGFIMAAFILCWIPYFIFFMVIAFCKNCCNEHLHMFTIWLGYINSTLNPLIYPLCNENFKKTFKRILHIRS
Sequence of H2 receptors (P25021 whole entry): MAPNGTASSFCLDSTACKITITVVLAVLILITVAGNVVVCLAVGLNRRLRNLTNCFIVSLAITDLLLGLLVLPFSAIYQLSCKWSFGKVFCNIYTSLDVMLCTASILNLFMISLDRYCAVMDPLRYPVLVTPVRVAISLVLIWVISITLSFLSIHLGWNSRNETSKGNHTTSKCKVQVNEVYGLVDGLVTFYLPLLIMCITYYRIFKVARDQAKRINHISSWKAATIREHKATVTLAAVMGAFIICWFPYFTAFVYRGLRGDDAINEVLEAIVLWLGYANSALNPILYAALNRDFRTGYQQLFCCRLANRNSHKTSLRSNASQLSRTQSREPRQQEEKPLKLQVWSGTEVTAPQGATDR

Tmax ([3]; 0.312 mg): 4.8 min
Tmax ([3]; 0.625 mg): 4.8 min
Tmax ([3]; 1.25 mg): 4.8 min
area under the curve (AUC0-24h) [3, 5]: dose proportional
peak plasma concentrations (Cmax) [3, 5]: dose proportional
SMILES: CN1CCC(=C2c3ccccc3CCn3c(C=O)cnc32)CC1 [Alcaftadine, 6,11-dihydro-11-(1-methyl-4-piperidinylidene)-5H-imidazo[2,1-b][3]benzazepine-3-carboxaldehyde]
binding affinity to H2 receptors [1]: higher binding affinity
signs or symptoms of inflammation or irritation [2]: no signs or symptoms of inflammation or irritation were observed
plasma concentration / systemic exposure ([3]; intranasal, rabbits): dose proportional with overall low systemic exposure
binding affinity to H1 receptors [4]: higher binding affinity
